Measurements from publication PMC12291762 (Antioxidants, 2025).

Tests used:
[1] = tested on: carrageenan-induced rat paw edema; assay: Carrageenan-induced rat paw edema model of acute inflammation; type: in vivo, Wistar albino rats; settings: for % of inhibition of paw edema, 1 h / Rat paw thickness, 1 h / % of inhibition of paw edema, 2 h / Rat paw thickness, 2 h / % of inhibition of paw edema, 3 h / Rat paw thickness, 3 h / % of inhibition of paw edema, 4 h / Rat paw thickness, 4 h / Anti-inflammatory effect on edema diameter compared to the control group (significance): 0.0315 mmol/kg i.p.; for % of inhibition of paw edema, 1 h / % of inhibition of paw edema, 2 h / % of inhibition of paw edema, 3 h / % of inhibition of paw edema, 4 h: vs solvent group; for Rat paw thickness, 1 h: 1 h post-carrageenan; for Rat paw thickness, 1 h / Rat paw thickness, 2 h / Rat paw thickness, 3 h / Rat paw thickness, 4 h / Rat paw thickness, 0 h: mean ± SD; for Rat paw thickness, 2 h: 2 h post-carrageenan; for Rat paw thickness, 3 h: 3 h post-carrageenan; for Rat paw thickness, 4 h: 4 h post-carrageenan; for Anti-inflammatory effect on edema diameter compared to the control group (significance): from 2nd hour to end of observation; for Rat paw thickness, 0 h: immediately before inflammation induction
Procedure: Inflammation was induced in all rats by an intraplantar injection of 100 μL of freshly prepared 1% carrageenan solution in distilled water into the left hind paw. A total of 56 male Wistar albino rats were randomly divided into five experimental groups (n = 40 rats, 8 rats per subgroup) and two control groups (n = 16 rats, 8 rats per subgroup).
The experimental groups consisted of rats that received synthesized compounds via intraperitoneal injection immediately following carrageenan administration. The solutions of the investigated molecules were prepared by dissolving the compound in distilled water with the addition of a few drops of Tween 80 [18], whereby each rat received 500 μL of the prepared solution. […] The negative control group included rats that received an intraperitoneal injection of the solvent solution (distilled water with a few drops of Tween 80) at the same time point.
To quantify the anti-edematous effect, the thickness of the left paw tissue of each rat was measured at specific time intervals: immediately before inflammation induction (moment 0) and at 1, 2, 3, and 4 h post-induction (moments 1, 2, 3, and 4, respectively). Tissue thickness was assessed in the middle of the rat paw using a digital vernier caliper (Aerospace, Beijing, China).

[2] = target: T1, COX-1 (Ovis aries, UniProt P05979); assay: Fluorometric COX-1 inhibitor screening kit; type: biochemical; parameters: purchased Abcam ab204698; settings: mean ± standard error, three independent measurements
T1 sequence (P05979 25-600): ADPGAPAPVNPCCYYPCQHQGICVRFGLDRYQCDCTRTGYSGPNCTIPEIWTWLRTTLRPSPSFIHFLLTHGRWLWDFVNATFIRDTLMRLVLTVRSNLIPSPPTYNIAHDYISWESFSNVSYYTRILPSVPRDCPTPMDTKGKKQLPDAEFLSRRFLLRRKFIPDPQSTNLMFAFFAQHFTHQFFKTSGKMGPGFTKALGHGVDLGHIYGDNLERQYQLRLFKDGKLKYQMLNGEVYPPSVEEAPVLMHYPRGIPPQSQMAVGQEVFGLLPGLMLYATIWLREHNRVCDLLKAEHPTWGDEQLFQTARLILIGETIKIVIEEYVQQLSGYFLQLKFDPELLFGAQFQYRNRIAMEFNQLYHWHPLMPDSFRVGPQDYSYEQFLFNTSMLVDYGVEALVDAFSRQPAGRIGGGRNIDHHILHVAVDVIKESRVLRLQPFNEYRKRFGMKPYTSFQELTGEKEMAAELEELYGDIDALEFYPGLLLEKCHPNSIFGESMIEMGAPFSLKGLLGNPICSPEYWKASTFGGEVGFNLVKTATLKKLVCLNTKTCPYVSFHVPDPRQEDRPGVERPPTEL
Procedure: (§1) The inhibitory activity of the tested compounds against COX-1 and COX-2 isoforms was assessed using fluorometric cyclooxygenase inhibitor screening kits (Catalog Numbers ab204698 and ab283401, respectively; Abcam, Cambridge, UK). These assays detect the formation of prostaglandin G2, a product of COX enzymatic activity, via fluorometric measurement.
Stock solutions of the test compounds were prepared at a concentration of 5 mM in DMSO and subsequently diluted with the same solvent to obtain the test solutions. For the assay preparation, 2 μL of each test solution was diluted with 8 μL of COX assay buffer. The solvent control (SC) consisted of 2 μL of DMSO and 8 μL of assay buffer, while the enzyme control (EC) contained 10 μL of assay buffer alone. Sample wells (S) received 10 μL of the diluted test solutions. All other steps were in accordance with the manufacturer’s protocol and the previously published article. […] The percentage of inhibition was calculated as follows:(3) % Relative Inhibition=Slope of EC−Slope of S/Slope of EC×100
(§2) Fluorescence measurements were conducted on a BioTek Synergy LX multi-mode reader (Winooski, VT, USA).

[3] = target: T2, COX-2 (Homo sapiens, UniProt P35354); assay: Fluorometric COX-2 inhibitor screening kit; type: biochemical; settings: mean ± standard error, three independent measurements
T2 construct: purchased Abcam ab283401
T2 sequence (P35354 18-604): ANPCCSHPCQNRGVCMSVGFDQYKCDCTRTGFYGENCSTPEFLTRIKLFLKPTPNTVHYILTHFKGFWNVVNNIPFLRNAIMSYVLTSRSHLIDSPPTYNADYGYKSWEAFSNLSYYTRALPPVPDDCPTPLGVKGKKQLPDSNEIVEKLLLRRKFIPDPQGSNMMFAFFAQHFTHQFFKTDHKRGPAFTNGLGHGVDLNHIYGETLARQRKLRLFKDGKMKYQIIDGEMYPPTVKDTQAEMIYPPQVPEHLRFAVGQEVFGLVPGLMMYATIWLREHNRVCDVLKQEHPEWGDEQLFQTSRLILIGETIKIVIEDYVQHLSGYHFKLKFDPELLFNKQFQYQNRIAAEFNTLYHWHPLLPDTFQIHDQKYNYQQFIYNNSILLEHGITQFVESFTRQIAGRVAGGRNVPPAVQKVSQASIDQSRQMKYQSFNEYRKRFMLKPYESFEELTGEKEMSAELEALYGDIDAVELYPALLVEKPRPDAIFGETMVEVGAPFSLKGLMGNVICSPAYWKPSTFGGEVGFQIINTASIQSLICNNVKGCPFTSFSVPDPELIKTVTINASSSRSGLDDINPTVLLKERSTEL
Procedure: as §1
Stock solutions of the test compounds were prepared at a concentration of 5 mM in DMSO and subsequently diluted with the same solvent to obtain the test solutions. For the assay preparation, 2 μL of each test solution was diluted with 8 μL of COX assay buffer. The solvent control (SC) consisted of 2 μL of DMSO and 8 μL of assay buffer, while the enzyme control (EC) contained 10 μL of assay buffer alone. Sample wells (S) received 10 μL of the diluted test solutions. All other steps were in accordance with the manufacturer’s protocol and the previously published article. Fluorescence was measured kinetically over a 10 min period at 25 °C, using the excitation and emission wavelengths of 535 nm and 587 nm, respectively. The percentage of inhibition was calculated as follows:(3) % Relative Inhibition=Slope of EC−Slope of S/Slope of EC×100
as §2

Compound	% of inhibition of paw edema, 1 h [1] [%]	Rat paw thickness, 1 h [1] [mm]	% of inhibition of paw edema, 2 h [1] [%]	Rat paw thickness, 2 h [1] [mm]	% of inhibition of paw edema, 3 h [1] [%]	Rat paw thickness, 3 h [1] [mm]	% of inhibition of paw edema, 4 h [1] [%]	Rat paw thickness, 4 h [1] [mm]	Anti-inflammatory effect on edema diameter compared to the control group (significance) [1]	Rat paw thickness, 0 h [1] [mm]	IC50 [2] [µM]	IC50 [3] [µM]
C[C@H](C(=O)N[C@@H](Cc1c[nH]c2ccccc12)C(=O)O)c1cccc(C(=O)c2ccccc2)c1 [Compound 4, ((S)-2-(3-benzoylphenyl)propanoyl)-L-tryptophan]	15.038	5.90 ± 0.37	24.460	5.77 ± 0.36	28.070	5.38 ± 0.34	58.824	4.48 ± 0.33	significantly reduced the edema diameter	4.02 ± 0.12	> 100	37.5 ± 3.43
C[C@H](C(=O)N[C@@H](Cc1ccccc1)C(=O)O)c1cccc(C(=O)c2ccccc2)c1 [Compound 3, ((S)-2-(3-benzoylphenyl)propanoyl)-L-phenylalanine]	10.526	6.25 ± 0.25	20.863	6.10 ± 0.18	22.807	5.73 ± 0.23		4.93 ± 0.37		4.27 ± 0.21	> 100	> 100
C[C@H](C(=O)NCC(=O)O)c1cccc(C(=O)c2ccccc2)c1 [Compound 1, (S)-(2-(3-benzoylphenyl)propanoyl)glycine]	5.263	5.68 ± 0.25	13.669	5.58 ± 0.34	16.842	5.16 ± 0.34	18.824	4.50 ± 0.29	did not achieve an anti-inflammatory effect at any measurement times	3.58 ± 0.13	> 100	> 100
C[C@H](NC(=O)[C@@H](C)c1cccc(C(=O)c2ccccc2)c1)C(=O)O [Compound 2, ((S)-2-(3-benzoylphenyl)propanoyl)-L-alanine]	16.090	6.52 ± 0.28	26.619	6.36 ± 0.25	33.684	5.92 ± 0.19	62.941	5.08 ± 0.54	significantly reduced the edema diameter	4.66 ± 0.13	> 100	> 100
C[C@H](C(=O)NCCCC(=O)O)c1cccc(C(=O)c2ccccc2)c1 [Compound 5, (S)-4-(2-(3-benzoylphenyl)propanamido)butanoic acid]	7.068	5.52 ± 0.25	17.122	5.38 ± 0.48	18.947	5.00 ± 0.29	27.647	4.28 ± 0.37		3.46 ± 0.29	> 100	> 100
